Measured values taken from PMC4145318, “Marinopyrrole Derivatives with Sulfide Spacers as Selective Disruptors of Mcl-1 Binding to Pro-Apoptotic Protein Bim” (Marine Drugs, 2014).
Like-named read-outs stand apart in the source and are kept apart here.

Columns and labels:
[1] = molecular target: T1, Mcl-1/Bim (Homo sapiens, UniProt Q07820); assay: ELISA, disruption of Mcl-1 binding to Bim; conditions: for IC50: ELISA; for fold more potent than 1 against Mcl-1/Bim: ELISA IC50 vs. marinopyrrole A (1)
T1 sequence (Q07820 whole entry): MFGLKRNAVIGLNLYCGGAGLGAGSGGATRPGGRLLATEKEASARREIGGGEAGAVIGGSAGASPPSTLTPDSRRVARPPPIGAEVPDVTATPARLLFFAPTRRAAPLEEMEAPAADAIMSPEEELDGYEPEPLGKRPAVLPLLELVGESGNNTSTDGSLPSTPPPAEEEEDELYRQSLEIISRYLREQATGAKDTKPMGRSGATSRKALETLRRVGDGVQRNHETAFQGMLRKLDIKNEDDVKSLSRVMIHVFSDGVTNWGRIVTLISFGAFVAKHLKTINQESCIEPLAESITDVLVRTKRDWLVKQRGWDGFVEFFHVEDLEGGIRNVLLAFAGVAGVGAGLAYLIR
Experimental: (§1) ELISAs were performed using a similar procedure as previously described. Briefly, 40 nM of biotinylated Bim BH3 peptide (Biomatik, Wilmington, DE, USA) in SuperBlock blocking buffer (Thermo Scientific Pierce, Rockford, IL, USA) was incubated in high-binding capacity streptavidin coated plates (Thermo Scientific Pierce, Rockford, IL, USA) for 2 h. Compounds were diluted in 120 µL of PBS containing 10 nM of GST-Mcl-1 or 10 nM GST-Bcl-xL in 1.5-mL tubes for 15 min. Wells were washed with wash buffer (PBS containing 0.05% Tween-20) and then 100 µL of the compound/GST-protein mixture was transferred to the Bim-containing wells. The plates were incubated for 2 h, and then, the wells were washed with wash buffer. HRP-conjugated anti-GST antibody (Bethyl Laboratories, Montgomery, TX, USA) was diluted 1:2000 in SuperBlock, and 100 µL were transferred to each well. The plate was incubated for 1 h, and then, the wells were washed with wash buffer followed by PBS. One hundred microliters of SureBlue TMB Microwell Peroxidase Substrate (VWR International, Radnor, PA, USA) was added to each well, and the plates were developed for 5–10 min. One hundred microliters of 1 N HCl was added to each well to stop the reaction, and the absorbance was read at 450 nm using a µQuant plate reader (Bio-Tek Instruments, Winooski, VT, USA).

[2] = molecular target: T2, Bcl-xL/Bim (Homo sapiens, UniProt Q07817); assay: ELISA, disruption of Bcl-xL binding to Bim; conditions: for IC50: ELISA; for fold more potent than 1 against Bcl-xL/Bim: ELISA IC50 vs. marinopyrrole A (1)
T2 sequence (Q07817 whole entry): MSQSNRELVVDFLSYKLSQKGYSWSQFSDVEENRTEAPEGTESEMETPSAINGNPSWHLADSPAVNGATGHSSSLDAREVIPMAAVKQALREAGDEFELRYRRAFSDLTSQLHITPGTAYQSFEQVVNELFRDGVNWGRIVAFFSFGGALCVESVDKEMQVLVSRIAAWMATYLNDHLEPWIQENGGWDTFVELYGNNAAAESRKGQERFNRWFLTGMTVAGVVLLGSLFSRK
Experimental: as §1

[3] = molecular target: T1, Mcl-1/Bim; conditions: ELISA; average ± SEM, n ≥ 3; data previously reported; cited from earlier work
[4] = molecular target: T2, Bcl-xL/Bim; design: method as in PMID 24608970; conditions: ELISA; average ± SEM, n ≥ 3; data previously reported; cited from earlier work
[5] = aqueous; stated without method or reference; cited from earlier work
[6] = tested on: MDA-MB-468 cells; assay: MTT assay; conditions: read-out: estimated IC50, inhibition of MDA-MB-468 cell growth
Experimental: In addition, the ability of the compounds to inhibit tumor growth of MDA-MB-468 cells was determined by MTT assays. To this end, MDA-MB-468 cells were treated for 48 h with the compounds at 0, 0.5, 5 and 50 μM, and the cells were processed for MTT assays as described by us [39].
MDA-MB-468 cells were treated and processed for MTT, DAPI nuclear staining and phase imaging of cells as described previously by us [39].

[7] = tested on: MDA-MB-468 cells; assay: Apoptosis induction (cleaved caspase 3, Western blotting); conditions: 40 μM for 16 h
Experimental: (§2) The cells were then processed for Western blotting exactly as described by us previously [16, 38]. […] We next evaluated the effects of the compounds on programed cell death (apoptosis) by determining their ability to induce cleaved caspase 3 in MDA-MB-468 cells.
(§3) Treatment of the human breast cancer (MDA-MB-468) cells and Western blotting were performed using the methods described by us previously [16, 38].

[8] = tested on: Mcl-1 levels in MDA-MB-468 cells; assay: Western blotting of Mcl-1 levels in intact breast cancer cells; conditions: 40 μM for 16 h
Experimental: as §2, §3

[9] = molecular target: T3, Mcl-1 (Homo sapiens, UniProt Q07820); assay: Fluorescence-quenching direct binding assay (intrinsic Trp fluorescence); conditions: 2.5 μM His-tagged Mcl-1 (residues 172–327), pH 7.6
T3 construct: Recombinant His-tagged Mcl-1 (residues 172–327) was purified as previously described; His; made in house
T3 sequence (Q07820 172-327): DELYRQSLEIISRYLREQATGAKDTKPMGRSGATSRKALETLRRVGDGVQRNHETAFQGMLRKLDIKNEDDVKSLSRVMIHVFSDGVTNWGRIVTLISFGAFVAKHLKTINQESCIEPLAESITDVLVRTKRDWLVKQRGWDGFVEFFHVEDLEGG
Experimental: To confirm direct binding of the compounds to Mcl-1, we have established a fluorescence-quenching assay based on the intrinsic Trp fluorescence of Mcl-1 [37].
Recombinant His-tagged Mcl-1 (residues 172–327) was purified as previously described. Intrinsic Trp fluorescence of Mcl-1 was measured with a TECAN M1000 plate reader at excitation wavelength of 285 nm and emission wavelengths of 310–400 nm. Serial dilutions of compound 9 (starting from 20 μM) in 20 mM K-phosphate pH 7.6, […] was used to assay compound binding using 2.5 μM of Mcl-1. Each condition is run at triplicate and binding constants are calculated by nonlinear regression analysis of dose response curves using Prism software 6.0 (Graphpad, La Jolla, CA, USA). Control experiments included titration of DMSO solvent and fluorescence quenching of denatured Mcl-1 in the presence of compound.

[10] = average ± SEM, n ≥ 3, 10 nM GST-Mcl-1, 40 nM biotinylated Bim BH3 peptide, read-out: Mcl-1/Bim IC50
[11] = average ± SEM, n ≥ 3 (n = 2 where given), 10 nM GST-Bcl-xL, 40 nM biotinylated Bim BH3 peptide, read-out: Bcl-xL/Bim IC50
[12] = read-out: IC50 Mcl-1/Bim disruption (abstract)
[13] = read-out: IC50 Bcl-xL/Bim disruption (abstract)

Compound | IC50 [1, 10] [µM] | IC50 [2, 11] [µM] | IC50 [3] [µM] | IC50 [4] [µM] | solubility [5] | IC50 ([6]; MTT, 48 h, compounds at 0, 0.5, 5 and 50 μM, estimated) [µM] | induction of apoptosis (cleaved caspase 3) [7] | decrease in the levels of Mcl-1 [8] | fold more potent than 1 against Mcl-1/Bim [1] | IC50 ([6]; Homo sapiens, MDA-MB-468, 48 h) [µM] | IC50 [1, 12] [µM] | fold more potent than 1 against Bcl-xL/Bim [2] [fold] | IC50 [2, 13] [µM] | selectivity for Mcl-1/Bim over Bcl-xL/Bim ([1]; ratio of ELISA IC50 values) [fold] | Kd [9] [µM]
O=C(c1ccccc1O)c1[nH]c(Cl)c(Cl)c1-n1c(C(=O)c2ccccc2O)cc(Cl)c1Cl [Compound 1, marinopyrrole A, reference compound] | 25.1 ± 4.7 | 96.6 | 8.9 ± 1 | 16.4 ± 3.3 | poor solubility | 2 | potently induced apoptosis | significant decrease | – | – | – | – | – | – | –
CCOC(=O)CSc1ccc(C(=O)c2[nH]c(Cl)c(Cl)c2-n2c(C(=O)c3ccc(SCC(=O)OCC)cc3O)cc(Cl)c2Cl)c(O)c1 [Compound 3] | 1.8 ± 0.3 | 1.2 ± 0.2 | – | – | – | – | potently induced apoptosis | highly potent | five | 3 | – | – | – | – | –
O=C(c1ccc(SCc2ccccc2)cc1O)c1[nH]c(Cl)c(Cl)c1-n1c(C(=O)c2ccc(SCc3ccccc3)cc2O)cc(Cl)c1Cl [Compound 4, (4,4′,5,5′-Tetrachloro-1′H-1,3′-bipyrrole-2,2′-diyl)bis(((2-hydroxy-4-benzylthio)phenyl)methanone)] | 0.7 ± 0.2 | 0.6 ± 0.2 | – | – | – | – | potently induced apoptosis | highly potent | 12.7 fold | 28 | 0.6 | 27.3 | 0.7 | – | –
COc1ccc(CSc2ccc(C(=O)c3[nH]c(Cl)c(Cl)c3-n3c(C(=O)c4ccc(SCc5ccc(OC)cc5)cc4O)cc(Cl)c3Cl)c(O)c2)cc1 [Compound 5] | 0.7 ± 0.1 | 0.6 ± 0.1 | – | – | – | – | potently induced apoptosis | highly potent | 12.7 fold | 50 | 0.6 | 27.3 | 0.7 | – | –
CCOC(=O)CS(=O)(=O)c1ccc(C(=O)c2[nH]c(Cl)c(Cl)c2-n2c(C(=O)c3ccc(S(=O)(=O)CC(=O)OCC)cc3O)cc(Cl)c2Cl)c(O)c1 [Compound 6] | 37.3 ± 3.1 | > 100 | – | – | – | – | potently induced apoptosis | highly potent | – | 50 | – | – | – | – | –
O=C(c1ccc(S(=O)(=O)Cc2ccccc2)cc1O)c1[nH]c(Cl)c(Cl)c1-n1c(C(=O)c2ccc(S(=O)(=O)Cc3ccccc3)cc2O)cc(Cl)c1Cl [Compound 7, (4,4′,5,5′-Tetrachloro-1′H-1,3′-bipyrrole-2,2′-diyl)bis(((2-hydroxy-4-benzylsulfonyl)phenyl)methanone)] | 7.3 ± 1.4 | 69.3 ± 15.8 | – | – | – | – | potently induced apoptosis | – | – | 20 | – | – | – | – | –
COc1ccc(CS(=O)(=O)c2ccc(C(=O)c3[nH]c(Cl)c(Cl)c3-n3c(C(=O)c4ccc(S(=O)(=O)Cc5ccc(OC)cc5)cc4O)cc(Cl)c3Cl)c(O)c2)cc1 [Compound 8] | 17.4 ± 3.1 | > 100 | – | – | – | – | weak | moderately active | – | 50 | – | – | – | – | –
O=C(O)CSc1ccc(C(=O)c2[nH]c(Cl)c(Cl)c2-n2c(C(=O)c3ccc(SCC(=O)O)cc3O)cc(Cl)c2Cl)c(O)c1 [Compound 9] | 6.1 ± 1.3 | > 100 | – | – | – | – | weak | moderately active | – | 29 | – | – | – | 16.4 | 2.7
O=C(O)CS(=O)(=O)c1ccc(C(=O)c2[nH]c(Cl)c(Cl)c2-n2c(C(=O)c3ccc(S(=O)(=O)CC(=O)O)cc3O)cc(Cl)c2Cl)c(O)c1 [Compound 10] | 63 ± 5.4 | > 100 | – | – | – | – | potently induced apoptosis | highly potent | – | 20 | – | – | – | – | –
CCOC(=O)c1cc(Cl)c(Cl)n1-c1c(C(=O)c2ccccc2O)[nH]c(Cl)c1Cl [Compound 11] | – | – | – | – | – | – | potently induced apoptosis | highly potent | – | 2 | – | – | – | – | –
CCOC(=O)c1[nH]c(Cl)c(Cl)c1-n1c(C(=O)c2ccccc2O)cc(Cl)c1Cl [Compound 12] | 11.5 ± 1.9 | 17.6 ± 4.5 | – | – | – | – | weak | moderately active | – | 16 | – | – | – | – | –
